Blank lines part the entries; values can stand above or below the molecule they belong to. Starred links: 1 amine or outer side, 2 acyl side, 3 side chain; linkers in the order of their positions; H or OH if unused. Non-standard residues stand in square brackets, D forms with d. Residues, ends and D or L forms follow the SMILES beside them. ξ: configuration not given here. *: point of attachment. Sta(3ξ) = CC(C)C[C@H](N[*:1])C(O)CC(=O)[*:2]; Isovaleryl = CC(C)CC(=O)*
How the values were obtained:
[1] = molecular target: T1, Renin (Homo sapiens, UniProt P00797); experiment: Antihypertensive activity against human renin
T1 sequence (P00797 whole entry): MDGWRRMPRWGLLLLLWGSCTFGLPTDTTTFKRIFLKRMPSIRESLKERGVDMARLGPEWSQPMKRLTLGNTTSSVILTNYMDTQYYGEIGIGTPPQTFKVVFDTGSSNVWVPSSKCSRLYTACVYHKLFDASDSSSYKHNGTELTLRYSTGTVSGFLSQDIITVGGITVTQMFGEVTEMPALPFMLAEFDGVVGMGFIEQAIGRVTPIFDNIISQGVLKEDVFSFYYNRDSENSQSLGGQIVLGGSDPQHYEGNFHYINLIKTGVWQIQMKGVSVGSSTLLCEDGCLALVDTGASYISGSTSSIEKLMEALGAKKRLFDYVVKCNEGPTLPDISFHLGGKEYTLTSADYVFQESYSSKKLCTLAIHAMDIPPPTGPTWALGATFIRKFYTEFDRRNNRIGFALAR

[2] = substrate: CC[C@H](C)[C@H](NC(=O)[C@H](Cc1ccc(O)cc1)NC(=O)[C@@H](NC(=O)[C@H](CCCN=C(N)N)NC(=O)[C@@H](N)CC(=O)O)C(C)C)C(=O)N[C@@H](Cc1c[nH]cn1)C(=O)N1CCC[C@H]1C(=O)N[C@@H](Cc1ccccc1)C(=O)N[C@@H](Cc1c[nH]cn1)C(=O)N[C@@H](CC(C)C)C(=O)O; experiment: The compound was tested for its antihypertensive activity against human renin; format: functional

Molecule: C[C@H](NP(=O)(O)Oc1ccccc1)C(=O)N1CCC[C@H]1C(=O)O
Ki [1]: 1 nM

Ki [1]: 800 nM
Molecule: C[C@H](CCC(=O)O)C(=O)N1CCC[C@H]1C(=O)O

Ki [1]: 100 nM
Molecule: CC(C)CC(=O)N[C@H](C(=O)N[C@H](C(=O)N[C@@H](CC(C)C)C(O)CC(=O)N[C@@H](C)C(=O)N[C@@H](CC(C)C)C(O)CC(=O)N[C@@H](CCCN=C(N)N)C(=O)O)C(C)C)C(C)C (some centres undefined) (Isovaleryl-VV[Sta(3ξ)]A[Sta(3ξ)]R-OH)

Ki [1]: 600 nM
Molecule: C[C@H](CC(=O)NO)C(=O)N1CCC[C@H]1C(=O)O

Ki [1]: 1.2 nM
Molecule: C[C@H](NC(CCc1ccccc1)C(=O)O)C(=O)N1CCC[C@H]1C(=O)O (some centres undefined)

Ki [1]: 42000 nM
Molecule: CC(C)C[C@H](NC(=O)[C@H](Cc1cnc[nH]1)NC(=O)[C@H](Cc1ccccc1)NC(=O)[C@H]1CCCN1C(=O)[C@H](Cc1cnc[nH]1)NC(=O)[C@H]1CCCN1)C(=O)N[C@@H](CC(C)C)C(=O)N[C@H](C(=O)N[C@@H](Cc1ccc(O)cc1)C(=O)O)C(C)C

Ki [1]: 2500 nM
Molecule: C[C@H](CC(=O)O)C(=O)N1CCC[C@H]1C(=O)O

Ki [1]: 4000 nM
Molecule: CC(C)C[C@H](NC(=O)[C@H](Cc1cnc[nH]1)NC(=O)[C@H](Cc1ccccc1)NC(=O)[C@H]1CCCN1C(=O)[C@H](Cc1cnc[nH]1)NC(=O)[C@H]1CCCN1)C(=O)N[C@@H](Cc1ccccc1)C(=O)N[C@H](C(=O)N[C@@H](Cc1ccc(O)cc1)C(=O)O)C(C)C

Molecule: C[C@@H](NC(=O)[C@H](Cc1ccccc1)NP(=O)(O)Oc1ccccc1)C(=O)O
Ki [1]: 2200 nM

Ki [1]: 800 nM
Molecule: H-EWPRPQIPP-OH

Ki [1]: 300 nM
Molecule: COC(=O)[C@H](CCCN=C(N)N)NC(=O)CC(O)[C@H](CC(C)C)NC(=O)[C@H](C)NC(=O)CC(O)[C@H](CC(C)C)NC(=O)[C@@H](NC(=O)[C@@H](NC(=O)CC(C)C)C(C)C)C(C)C (some centres undefined) (Isovaleryl-VV[Sta(3ξ)]A[Sta(3ξ)]R-OMe)

Ki [1]: 1.7 nM
Molecule: C[C@H](CS)C(=O)N1CCC[C@H]1C(=O)O [CAPTOPRIL]

Ki [1]: 1000 nM
Molecule: CC(C)[C@H](NC(=O)[C@H](Cc1ccccc1)NC(=O)[C@H](Cc1ccccc1)NC(=O)[C@H](Cc1c[nH]cn1)NC(=O)[C@H](Cc1ccccc1)NC(=O)[C@H]1CCCN1C(=O)[C@H](Cc1c[nH]cn1)NC(=O)[C@H]1CCCN1)C(=O)N[C@@H](Cc1ccc(O)cc1)C(=O)O

B1: Renin (Homo sapiens), P00797 (protein)
chain: T1 sequence (P00797 whole entry)
Km [2]: 50 µM
